The EC50 is the concentration needed to bring the measured effect to its halfway point. A lower EC50 goes with a more potent agent.

Sequence of Glutathione S-transferase class-mu 26 kDa isozyme (P08515 2-218 limits assumed): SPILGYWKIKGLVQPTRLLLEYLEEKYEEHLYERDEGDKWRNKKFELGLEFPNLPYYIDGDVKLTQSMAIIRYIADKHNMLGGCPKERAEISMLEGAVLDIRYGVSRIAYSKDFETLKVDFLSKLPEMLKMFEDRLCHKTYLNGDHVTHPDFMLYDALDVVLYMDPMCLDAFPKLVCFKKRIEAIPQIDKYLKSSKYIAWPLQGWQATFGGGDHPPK

The test addresses Glutathione S-transferase class-mu 26 kDa isozyme (Schistosoma japonicum, UniProt P08515). Briefly: GST–glutathione interaction disruption – biochemical, multiplex beads, flow cytometry, HPSMTB buffer, profiling panel (AID 1324). For orientation: In flow cytometry, cells or beads pass a laser one at a time.
Compound `CN(C)[C@@H]1C(=O)C(C(=O)NCN2CCCC2)C(=O)[C@@]2(O)C(=O)C3C(=O)c4c(O)cccc4[C@@](C)(O)C3CC12` (stereo partly drawn) [(2Z,4S,6S,12aS)-4-(dimethylamino)-6,10,11,12a-tetrahydroxy-2-[hydroxy-(1-pyrrolidinylmethylamino)methylidene]-6-methyl-4,4a,5,5a-tetrahydrotetracene-1,3,12-trione] showed an EC50 of 21.4 µM. Regarding `COc1cc(CN=Nc2nn3cnnc3c3ccccc23)ccc1O` [(4E)-2-methoxy-4-[[2-([1,2,4]triazolo[3,4-a]phthalazin-6-yl)hydrazinyl]methylidene]cyclohexa-2,5-dien-1-one], a half-maximal effect (EC50) was put at 2.36 µM. The same measure for `O=[N+]([O-])c1ccc(N=NCc2ccc(O)c(O)c2O)c(S(=O)(=O)N2CCOCC2)c1` [MLS000336720]: 24 µM; for `COc1cccc(CN=Nc2nn3cnnc3c3ccccc23)c1` [N-[1-(3-Methoxy-phenyl)-meth-(E)-ylidene]-N'-[1,2,4]triazolo[3,4-a]phthalazin-6-yl-hydrazine]: 7.28 µM.

(Values after BindingDB's records for doi:10.7270/Q2M61HPT (Nmmlsc, 2008).)
